Here are results for 93 compounds from PubChem BioAssay AID1902 (Broad Institute, 2009).

The source made the active and inactive calls.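 The calls were made as follows: active = EC50 no more than a set limit of log units above the highest dose; inactive = the rest.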

The target of the assay is S. pyogenes SKKanGAS, kanamycin survival, BacTiterGlo, 6 h. Kind of assay: S. pyogenes SKKanGAS kanamycin growth inhibitors – SKKanGAS strain, luminescence, dose confirmation, streptokinase promoter inhibitor project, dose response (AID 1902).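 Also: lower survival reflects blocked streptokinase promoter driving kanamycin resistance gene.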
As to `Cc1ccccc1-c1nc2c3ccccc3nc(=S)n2[nH]1`, the EC50 is 4.01 µM.
`CCCCn1c(=O)c(C(=O)Nc2ccccn2)c(O)c2ccccc21`: the concentration for a half-maximal effect (EC50) is 5.09 µM.
Regarding `O=C1c2ccccc2C(=O)c2c1oc(C(F)(F)F)c2C(=O)c1ccccc1`, the EC50 is 1.82 µM.
As for `CC(=O)O[C@H]1C[C@@]2(C)[C@@H](C[C@@H](O)[C@H]3[C@@]4(C)CC[C@@H](O)[C@@H](C)C4CC[C@@]32C)/C1=C(\CCC=C(C)C)C(=O)O` (stereo partly drawn), the half-maximal effective concentration (EC50) is 1.58 µM.
The figure for `CCCCNc1c(-c2ccc(OC)c(SC3CCCCC3)c2)nc2cnccn12` is 3.62 µM; for `C/C(=N\NC(=O)c1ccc(Cl)c(Cl)c1)c1ccccn1` it is 0.063 µM.
Next, `CCOC(=O)N1CCC(N2Cc3cccc(C(=O)Nc4ccc(F)cc4)c3C2=O)CC1`: 5.9 µM; `Cc1cccc(C)c1OCC(O)CN1CCC(CN2C(=O)c3cccc4cccc(c34)C2=O)CC1` (stereo not drawn): 7.35 µM.
The figure for `N#CCSc1nc2ccc(N3CCOCC3)cc2c(=O)n1CCc1ccccc1` is 3.71 µM; for `CC(=O)N1c2ccc(S(=O)(=O)N3CCC(C(=O)Nc4cc(C)ccn4)CC3)cc2CC1C` (stereo not drawn) it is > 15 µM (inactive); for `COc1cc(OC)cc(C(=O)Nc2nc(CC(=O)NCc3ccccc3OC)cs2)c1` it is 12.4 µM.
As for `CSc1c(SCc2ccccc2)cnn(Cc2ccccc2)c1=O`, the concentration for a half-maximal effect (EC50) is 3.95 µM.
For `O=C(O)c1ccc(N/N=C/c2ccc(-c3cccc(Cl)c3)o2)cc1`, the EC50 is 6.17 µM.
For `COc1ccccc1N1CC(C(=O)Nc2nnc(SCC(=O)N3CCCC3)s2)CC1=O` (stereo not drawn), the EC50 is > 15 µM (inactive).
The figure for `COc1ccc(/C=C/c2ccc3c(Br)ccc(O)c3n2)cc1` is 0.785 µM; for `COc1ccc(C(CNC(=O)c2cccc(S(=O)(=O)Nc3ccccc3Cl)c2)N2CCOCC2)cc1` (stereo not drawn) it is 11.1 µM; for `O=C(/C=C/c1ccc(Br)cc1)NC(=S)NNC(=O)c1ccco1` it is 0.391 µM.
Regarding `O=C(O)c1cnc(-c2ccccc2)nc1Sc1ccc(Cl)cc1Cl`, the concentration for a half-maximal effect (EC50) was 9.74 µM.
The figure for `CN(C)Cc1nc2ccccc2c(=O)n1Cc1nc(-c2cc3ccccc3o2)cs1` is 1.82 µM.
`CSCC[C@H](NC(=O)c1nn(C)c(=O)c2ccccc12)c1nc2ccccc2[nH]1`: the EC50 was 2.85 µM.
For the compound `COc1ccc([C@H]2Oc3cc(O)cc(O)c3C(=O)C2[C@@H]2C(=O)c3c(O)cc(O)cc3O[C@@H]2c2ccc(OC)cc2)cc1` (stereo partly drawn), the EC50 is 1.61 µM.
The figure for `Cc1sc2ncnc(N3CCC(C(=O)Nc4ccc(Cl)cc4Cl)CC3)c2c1C` is 11.2 µM.
The figure for `Cc1ccc(SCC(=O)N2c3ccccc3Sc3ccccc32)cc1` is 3.78 µM.
Turning to `Cc1sc2ncnc(N3CCC(C(=O)NCC(=O)Nc4ccc(F)c(F)c4)CC3)c2c1C`, the concentration giving a half-maximal response (EC50) is 5.07 µM.
Next, `CCCCNc1c2c3c(cccc3n(C)c1=O)C(=O)c1ccccc1-2`: 6.26 µM; `Cc1cc(C)c2nc(NNC(=O)c3ccc(S(=O)(=O)N4CCCCC4)cc3)sc2c1`: 1.86 µM; `Cc1ccc(/C=C/C(=O)C2C(=O)c3ccccc3C2=O)cc1`: 1.62 µM.
Next, `COc1ccc(C(=O)NC(=S)NNC(=O)[C@H]2C[C@@H]2c2ccccc2)cc1OC`: 0.914 µM; `C=C1SC(=Nc2ccccc2Cl)N(C(=O)c2sc3ccccc3c2Cl)C12CCCCC2`: 3.48 µM.
As for `Cc1c(C(=O)Nc2nonc2-c2ccc(F)cc2)oc2ccc(F)cc12`, the 50% effective concentration (EC50) is 4.06 µM.
The figure for `Cc1ccc(NNC(=O)C2CCC2)cc1C` is > 15 µM (inactive).
The figure for `CCN1/C(=C/C=C/c2sc3ccccc3[n+]2CC)Sc2ccccc21` is 2.15 µM; for `CN(C)c1nc(SCc2ccccc2Cl)nc2c1CCCC2` it is 6.27 µM.
Next, `CCOc1ccccc1NC(=O)c1nc(S(=O)(=O)Cc2cccc(C)c2)ncc1Cl`: 11.1 µM.
As for `Fc1ccc(-c2cc(C(F)(F)F)nc(N3CCCCC3)n2)cc1`, the EC50 was 4.68 µM.
Next, `CN(C)CCCn1c(SCC(=O)Nc2nc(-c3cccc(Br)c3)cs2)nc2ccccc2c1=O`: 4.73 µM.
The figure for `CCCC(O)(c1ccc(Br)cc1)C(CN1CCOCC1)c1ccc(Cl)cc1` (stereo not drawn) is 10.1 µM; for `CC1Oc2cc3c(-c4c(O)cc(O)c5c(O)c6c(cc45)OC(C)C(C)C6=O)c(O)cc(O)c3c(O)c2C(=O)C1C` (stereo not drawn) it is 0.319 µM; for `Cn1c(O)c(N=NC(=S)Nc2ccccc2F)c2cc(S(=O)(=O)N3CCOCC3)ccc21` it is 5.09 µM.
`O=C(/C=C/c1ccccc1)NC(NC(=S)Nc1ccc(Cl)cc1)C(Cl)(Cl)Cl` (stereo not drawn): the concentration for a half-maximal effect (EC50) was 4.16 µM.
Turning to `COc1cccc(C(=O)Nc2nnc(-c3cccs3)o2)c1`, the EC50 was 3.34 µM.
Next, `O=C(Cc1ccccc1)N/N=C/c1cc(Br)cc(Cl)c1O`: 1.52 µM.
The figure for `Cc1ccc(CN2CC(C(=O)Nc3nnc(SCc4c(Cl)cccc4Cl)s3)CC2=O)cc1` (stereo not drawn) is 4.87 µM; for `Fc1cc(F)c(C2SCCN2C(=S)Nc2cccc(C(F)(F)F)c2)c(F)c1` (stereo not drawn) it is 8.26 µM; for `COc1ccccc1C(NC(C)=O)c1cc(Cl)c2cccnc2c1O` (stereo not drawn) it is 2.91 µM.
The figure for `c1ccc(CN2CCN(c3nc4ccccc4c4ccccc34)CC2)cc1` is 5.26 µM; for `C#CCN1C(=O)S/C(=C\c2ccc(-c3ccc(Cl)c(C(=O)O)c3)o2)C1=O` it is 2.83 µM.
For the compound `Cc1ccc(/C=C/c2ccc(=O)n(Cc3ccccc3Cl)n2)cc1`, the concentration for a half-maximal effect (EC50) is 6 µM.
The figure for `O=C(Nc1ccc2nc(-c3ccc4nc[nH]c4c3)[nH]c2c1)c1cccs1` is 15.7 µM; for `COc1ccc(/C=C/c2ccc3cccc(O)c3n2)cc1Br` it is 0.419 µM.
For `O=C(Nc1cccc(-c2ccc(N3CCOCC3)nn2)c1)c1ccccc1Cl`, the EC50 was > 15 µM (inactive).
Turning to `c1ccc(CCNc2nc(-c3ccccn3)nc3ccccc23)cc1`, the concentration giving a half-maximal response (EC50) is 0.884 µM.
As to `O=C(CSc1nc2nc(-c3cccs3)cc(C(F)(F)F)c2c(=O)[nH]1)Nc1ccc(F)c(F)c1`, the EC50 was 1.16 µM.
With `Cc1cc([N+](=O)[O-])cc(/C=N/n2c(C)nc3ccccc3c2=O)c1O`, the EC50 was 4.07 µM.
Next, `Cc1ccc(NC(=O)c2nc[nH]c2C(=O)N[C@@H](CCCCNC(=O)OC(C)(C)C)C(=O)OC(C)(C)C)cc1`: 3.76 µM; `CCOC(=O)Cc1c(C)nc2c(-c3cccc(Br)c3)c[nH]n2c1=O`: 3.53 µM.
The figure for `Cc1cccc(NC(=O)c2cc3n(n2)C(C(F)(F)F)CC(c2ccc4c(c2)OCO4)N3)c1` (stereo not drawn) is 7.23 µM; for `Cc1cc(=O)oc2c3c(cc(OCC(=O)NC4CC4)c12)OC(C)(C)CC3` it is > 15 µM (inactive); for `Cc1cccc(Cn2nc(-n3cccc3)c3c(C)cc(C)nc32)c1` it is 6.78 µM.
For `O=C(NCc1ccccn1)Nc1ccc(F)c(Cl)c1`, the EC50 was > 15 µM (inactive).
Next, `O=C(Nc1cccc(-c2csc(Nc3ccc(Cl)cc3)n2)c1)c1ccccc1`: 4.45 µM; `CC1CCN(Cc2c(C(=O)N/N=C/c3cc(Br)ccc3O)nnn2-c2nonc2N)CC1`: 10.2 µM; `COc1ccc(Nc2nc(NN)nc(Nc3ccc(OC)cc3)n2)cc1`: 6.02 µM.
The figure for `O=C(Nc1ccc(Br)cc1C(=O)O)c1ccc2c(c1)C(=O)N(Cc1ccccc1)C2=O` is 1.15 µM.
The figure for `COc1ccc(OC)c(CCNC(=O)C(=O)Nc2ccc3nc4n(c(=O)c3c2)CCCCC4)c1` is 10.1 µM; for `CC1CCC(C(=O)c2c(O)c3ccccc3oc2=O)CC1` (stereo not drawn) it is 5.13 µM; for `Cc1ccc2[nH]c(C(=O)N/N=C/c3ccccc3O)c(C)c2c1` it is 1.67 µM.
On to `Fc1ccccc1N=C1NN=C(c2ccccc2)CS1`, for which the half-maximal effective concentration (EC50) was 8.17 µM.
Regarding `Cc1cccc(-c2oc3ccccc3c2-c2ccc3c(c2)OCO3)c1`, the EC50 was 3.65 µM.
As for `O=C(NNc1ccccc1Cl)C(O)(c1cccc(C(F)(F)F)c1)c1cccc(C(F)(F)F)c1`, the EC50 is 2.61 µM.
For the compound `CC(C)COCc1ccc(O)c2ncccc12`, the half-maximal effective concentration (EC50) is 1.02 µM.
The figure for `Cc1cccc2sc(NNC(=O)c3ccc(S(=O)(=O)N4CC(C)CC(C)C4)cc3)nc12` (stereo not drawn) is 0.212 µM.
In the case of `COc1cc(NS(=O)(=O)c2ccc3ccccc3c2)c2ncccc2c1`, the EC50 is 1.08 µM.
The figure for `CCOC(=O)N1CCN(C(=O)c2ccc3c(c2)NC(=O)/C(=C\c2ccc(OC)c(OC)c2)S3)CC1` is 1.1 µM; for `C/C(=N\NC(=O)CSc1nc(C)[nH]c1[N+](=O)[O-])c1ccc(F)cc1` it is > 15 µM (inactive); for `Cc1cccc(-c2oc3ccccc3c2C#CCCCCO)c1` it is 5.72 µM.
Turning to `COC(=O)c1sc(N2C(=O)C(O)=C(C(=O)c3ccc(C)o3)C2c2ccc([N+](=O)[O-])cc2)nc1C` (stereo not drawn), the EC50 was 4.1 µM.
Take `COCC1CCCCN1C(=O)c1ccc2oc(CCCc3ccccc3)nc2c1` (stereo not drawn): the EC50 is > 15 µM (inactive).
In the case of `Cc1nnc(SCC2=C(C(=O)O)N3C(=O)C(NC(=O)c4cc(F)c(F)cc4Cl)C3SC2)s1` (stereo not drawn), the EC50 was 0.535 µM.
With `Cc1cccnc1Nc1nc(-c2ccccn2)cs1`, the EC50 is 0.705 µM.
On to `C=C(C)COc1ccc(-c2nc(N)ncc2Oc2ccc(OC)cc2)c(O)c1`, for which the concentration for a half-maximal effect (EC50) is 6.59 µM.
Consider `CC(C)C[C@H](NC(=O)c1nc[nH]c1C(=O)NCc1ccccc1)C(=O)OCc1ccccc1`, for which the EC50 is 5.01 µM.
The figure for `COc1ccc(C(=O)O)cc1NC(=S)NC(=O)c1ccc(-c2ccc(Cl)cc2)o1` is 2.3 µM; for `CC(C)c1ccccc1OCC(=O)NC1CCCc2ccccc21` (stereo not drawn) it is 11.7 µM; for `CCCCc1nc2cc(C(=O)N3CCC(OCCOC)CC3)ccc2o1` it is > 15 µM (inactive).
On to `O=C(Nc1nnc(-c2ccccn2)o1)c1cccc(Cl)c1`, for which the EC50 is 1.66 µM.
With `O=C1NC(=S)/C(=C\c2ccc(-c3ccccc3Cl)o2)S1`, the EC50 is 2.94 µM.
The figure for `Oc1cccc2ccc(/C=C/c3c(F)cccc3Cl)nc12` is 0.43 µM; for `Cn1c(CNC(=O)CNC(=O)c2ccc(F)cc2)cc(=O)n(C)c1=O` it is > 15 µM (inactive); for `COc1ccccc1N1CC(C(=O)Nc2nnc(SCC(=O)NCC3CCCO3)s2)CC1=O` (stereo not drawn) it is > 15 µM (inactive).
The figure for `Cc1noc(C)c1CSCC(=O)Nc1nc2ccc(Oc3ccccc3)cc2s1` is 4.85 µM; for `O=C(Nc1ccc(Cl)c(Cl)c1)N1CC=C(c2ccccc2)CC1` it is 8.08 µM.
The figure for `O=C(Nc1cccc(Cl)c1N1CCCC1)c1ccc(Br)o1` is 5.82 µM.
